Target: CXCR3 (Macaca fascicularis, UniProt A0A2K5UV19)
Assay: functional cellular assay measuring calcium flux in CXCR3 transfected cells (block of CXCR3/IP-10 interaction)
Format: cell-based, Cyno
Conditions: IP-10 induced intracellular calcium flux; Cyno-CHO cells stably expressing recombinant CXCR3 and G-alpha-16; IP-10 at EC80; read-out: IC50
Method: Compounds are assessed for the ability to block the interaction of CXCR3 and IP-10 in a functional cellular assay measuring calcium flux in CXCR3 transfected cells.
Cyno-CHO cells, stably expressing recombinant CXCR3 and G-alpha-16 are grown in F12 medium (Mediatech #45000-360) supplemented with 10% (V/V) FBS (Mediatech #35-01500), 1% Geneticin (Invitrogen #10131-027) and 0.2% Zeocin (Invitrogen #R250-05). The cells are spun down and re-suspended in growth media to a concentration of […]. 25 microL of cell suspension is added to each well of a BD-384-well TC treated plate, providing 12,000 cells/well. The plate is incubated at 37° C./5% CO2 overnight. On the day of the assay, the plates are removed, the media is flicked out and 25 microL of Ca-4 dye in assay buffer (HBSS, 10 mM HEPES ph 7.4), containing 2 mM probenacid is added to each well. The cell assay plates are then incubated at 37° C./5% CO2 for one hour.
Test compounds are dissolved in DMSO and diluted to 1.045 mM in DMSO. Just prior to assay, 2.75 microL of appropriately diluted test compound are added to each well of a 384 well plate containing 45 microL of HBSS buffer. After mixing, 5 microL of diluted compound are added to each well of the cell assay plate for a final assay concentration of 10 microM. The plate is incubated at room temperature for 15 min. 10 microL of IP-10 stock solution in HBSS (4× EC80 concentration) are added to each well of the cell assay plate except those cells reserved as blank wells containing buffer only. Intracellular calcium flux is recorded on the HAMAMTSU FDSS6000, using excitation at 480 nm and emission at 540 nm. Data are analyzed using Activity Base software.
In general, the preferred potency range (IC50) of compounds in the above assay is between 1 nM to 3 μM, and the most preferred potency range is 1 nM to 200 nM.

Sequence of CXCR3 (A0A2K5UV19 entry or part of it): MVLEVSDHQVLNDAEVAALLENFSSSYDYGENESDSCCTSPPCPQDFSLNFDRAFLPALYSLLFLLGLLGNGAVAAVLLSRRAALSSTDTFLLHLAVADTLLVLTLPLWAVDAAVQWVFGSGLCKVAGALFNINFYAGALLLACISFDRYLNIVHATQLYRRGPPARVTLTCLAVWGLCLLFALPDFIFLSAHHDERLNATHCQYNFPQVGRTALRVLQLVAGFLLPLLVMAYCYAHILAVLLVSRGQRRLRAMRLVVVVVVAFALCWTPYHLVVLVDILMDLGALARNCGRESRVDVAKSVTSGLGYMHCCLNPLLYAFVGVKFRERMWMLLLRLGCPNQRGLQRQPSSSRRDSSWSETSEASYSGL

| IC50 | SMILES |
| --- | --- |
| 0.008 µM | O=C(Cn1cnc2cccnc21)N1CCN(c2ccc(F)cc2-c2cnc(N3CCC(O)CC3)nc2)CC1 [1-(4-{4-fluoro-2-[2-(4-hydroxypiperidin-1-yl)pyrimidin-5-yl]phenyl}piperazin-1-yl)-2-(3H-imidazo[4,5-b]pyridin-3-yl)ethanone] |
| 0.02 µM | CN1CCN(c2ncc(-c3cc(F)ccc3N3CCN(C(=O)Cn4ccc5cccnc54)CC3)cn2)CC1 [1-(4-{4-fluoro-2-[2-(4-methylpiperazin-1-yl)pyrimidin-5-yl]phenyl}piperazin-1-yl)-2-(1H-pyrrolo[2,3-b]pyridin-1-yl)ethanone] |
| 0.043 µM | CN1CCN(c2ncc(-c3cc(F)ccc3N3CCN(C(=O)Cn4cnc5cccnc54)CC3)cn2)CC1 [1-(4-{4-fluoro-2-[2-(4-methylpiperazin-1-yl)pyrimidin-5-yl]phenyl}piperazin-1-yl)-2-(3H-imidazo[4,5-b]pyridin-3-yl)ethanone] |
| 0.048 µM | CC1CN(c2ccc(F)cc2-c2cnc(S(C)(=O)=O)nc2)CCN1C(=O)Cn1ccc2cccnc21 (stereo not shown) [1-(4-{4-fluoro-2-[2-(methylsulfonyl)pyrimidin-5-yl]phenyl}-2-methylpiperazin-1-yl)-2-(1H-pyrrolo[2,3-b]pyridin-1-yl)ethanone] |
| 0.067 µM | CS(=O)(=O)c1ncc(-c2cc(F)ccc2N2CCN(C(=O)Cn3ccc4cccnc43)CC2)cn1 [1-(4-{4-fluoro-2-[2-(methylsulfonyl)pyrimidin-5-yl]phenyl}piperazin-1-yl)-2-(1H-pyrrolo[2,3-b]pyridin-1-yl)ethanone] |
| 0.488 µM | CS(=O)(=O)c1ncc(-c2cc(F)ccc2N2CCN(C(=O)Cn3cnc4cccnc43)CC2)cn1 [1-(4-{4-fluoro-2-[2-(methylsulfonyl)pyrimidin-5-yl]phenyl}piperazin-1-yl)-2-(3H-imidazo[4,5-b]pyridin-3-yl)ethanone] |
| 0.014 µM | O=C(Cn1ccc2cccnc21)N1CCN(c2ccc(F)cc2-c2cnc(N3CCOCC3)nc2)CC1 [1-(4-{4-fluoro-2-[2-(morpholin-4-yl)pyrimidin-5-yl]phenyl}piperazin-1-yl)-2-(1H-pyrrolo[2,3-b]pyridin-1-yl)ethanone] |
| 0.013 µM | O=C(Cn1ccc2ccncc21)N1CCN(c2ccc(F)cc2-c2cnc(N3CCOCC3)nc2)CC1 [1-(4-{4-fluoro-2-[2-(morpholin-4-yl)pyrimidin-5-yl]phenyl}piperazin-1-yl)-2-(1H-pyrrolo[2,3-c]pyridin-1-yl)ethanone] |

More lines, now with the values behind:

| SMILES | IC50 |
| --- | --- |
| C[C@@H]1CN(c2ncc(-c3ccccc3N3CCN(C(=O)Cn4ccc5cccnc54)CC3)cn2)C[C@H](C)O1 [1-(4-{2-[2-((2R,6S)-2,6-Dimethyl-morpholin-4-yl)-pyrimidin-5-yl]-phenyl}-piperazin-1-yl)-2-pyrrolo[2,3-b]pyridin-1-yl-ethanone] | 0.01 µM |
| Cc1cc(C)n(CC(=O)N2CCN(c3ccccc3-c3cnc(N4CC[C@@H](N(C)C)C4)nc3)CC2)n1 [1-(4-{2-[2-((R)-3-Dimethylamino-pyrrolidin-1-yl)-pyrimidin-5-yl]-phenyl}-piperazin-1-yl)-2-(3,5-dimethyl-pyrazol-1-yl)-ethanone] | 0.004 µM |
| Cc1cc(C)n(CC(=O)N2CCN(c3ccccc3-c3cnc(N4C[C@H]5CC[C@@H]4C5)nc3)CC2)n1 [1-(4-{2-[(1R,4S)-2-(2-Aza-bicyclo[2.2.1]hept-2-yl)-pyrimidin-5-yl]-phenyl}-piperazin-1-yl)-2-(3,5-dimethyl-pyrazol-1-yl)-ethanone] | 0.004 µM |
| O=C(Cn1ccc2cccnc21)N1CCN(c2ccc(F)cc2-c2cnc(N3CCC(O)CC3)nc2)CC1 [1-(4-{4-fluoro-2-[2-(4-hydroxypiperidin-1-yl)pyrimidin-5-yl]phenyl}piperazin-1-yl)-2-(1H-pyrrolo[2,3-b]pyridin-1-yl)ethanone] | 0.008 µM |
| O=C(Cn1ccc2ccncc21)N1CCN(c2ccc(F)cc2-c2cnc(N3CCC(O)CC3)nc2)CC1 [1-(4-{4-fluoro-2-[2-(4-hydroxypiperidin-1-yl)pyrimidin-5-yl]phenyl}piperazin-1-yl)-2-(1H-pyrrolo[2,3-c]pyridin-1-yl)ethanone] | 0.01 µM |
